# In patent US20260258333A1, “MULTI-ORGAN "BODY ON A CHIP" APPARATUS UTILIZING A COMMON MEDIA” (Wake Forest University Health Sciences, priority 2016, published 2026):
# Where two headings read alike, the source gives them in different places.
# Tests used:
# cardiac organoids [1] = conditions: preliminary results, FIG. 22
# Description: Following compound exposures, organoids were assessed for viability with LIVE/DEAD staining or ATP activity.
# liver organoids [2] = test: Liver on a chip: acetaminophen toxicity and N-acetyl-L-cysteine countermeasure; assay type: cell-based, human; conditions: for albumin and urea output into media: APAP 1 or 10 mM, NAC 20 mM with 10 mM APAP
# Description: FIG. 13. […] Viability as determined by LIVE/DEAD staining on day 14. Organoids were exposed to panel a) a 0 mM APAP control, panel b) 1 mM APAP, panel c) 10 mM APAP, or panel d) 10 mM APAP with 20 mM N-acetyl-L-cysteine. Green—Calcein AM-stained viable cells; Red—Ethidium homodimer-stained dead cells. […] Quantification of panel e) human albumin, panel f) urea, panel g) lactate dehydrogenase, and panel h) alpha-GST. […] Statistical significance: *p<0.05 between control and APAP; # p<0.05 APAP+NAC and APAP.
# [3] = marketed use in patients; cited from earlier work
# liver organoids [4] = test: LIVE/DEAD staining of 3D liver organoids, FDA-recalled drug screen; assay type: cell-based, human; conditions: increasing drug concentration (troglitazone 0-3 μM, mibefradil 0-100 μM)
# Excerpt: Unfortunately, many drugs have made it through preclinical studies and clinical trials, after which they existed on the market, for years in some cases, before being recalled by the Food and Drug Administration (FDA) for having toxic effects in humans. […] These include liver toxins troglitazone, mibefradil, bromfenac, and tienilic acid, as well as cardiac toxins, astemizole, pergoglide, terodiline, rofecoxib, and valdecoxib.
# [5] = test system: cardiac organoids, 2D iPS-derived cardiomyocytes, 2D C2C12; test: ATP activity, 3D cardiac organoids versus 2D iPS cardiomyocyte and 2D C2C12 cultures
# Description: (§4) Comparison of ATP activity in response to drug screens of FDA-recalled drugs between 3D liver and cardiac organoids, 2D hepatocyte and cardiomyocyte cultures, and 2D HepG2 and C2C12 cell line cultures. Panels a-d) ATP activity of liver organoids, 2D primary human hepatocytes, and 2D hepG2 cell line cultures in response to panel a) troglitazone, panel b) mibefradil, panel c) bromfenac, and panel d) tielinic acid. Panels e-i) ATP activity of cardiac organoids, 2D iPS-derived cardiomyocytes, and 2D C2C12 cell line cultures in response to panel e) astemizole, panel f) pergoglide, panel g) terodiline, panel h) rofecoxib, and panel i) valdecoxib. Comparisons between groups were normalized to the no drug baseline ATP activity levels. Statistical significance: *p<0.05, 3D organoids versus both 2D cultures; #p<0.05, 2D hepatocytes/cardiomyocytes versus both 3D organoids and 2D cell lines; $ p<0.05, 2D cell line versus both 3D organoids and 2D hepatocytes/cardiomyocytes.
# (§5) In comparison to 3D organoid systems, we also screened these drugs using 2D primary hepatocyte and iPS cardiomyocyte cultures, and 2D hepg2 hepatoma cells and C2C12 myoblast cultures. […] In order to allow comparisons between the different cell model form factors, which employed different numbers of cells (liver organoids—1500; cardiac organoids—2500; 2D hepatocytes—20000; 2D cardiomyocytes—12500; HepG2 and C2C12 cultures—20000), ATP levels were normalized to no drug baseline levels.
# [6] = test system: cardiac organoids, 2D iPS-derived cardiomyocytes, 2D C2C12
# Description: as §4, §5
# cardiac organoids [7] = test system: cardiac organoids
# Description: FIG. 14. […] Panel a) Beating output under baseline conditions, from which beating rate is determined. Panels b-e) Change in cardiac organoid beat rate resulting from exposure to panel b) isoproterenol, or panel c) quinidine. Panels d-e) Cardiac organoid response to epinephrine and propranolol.
# FIG. 19. Assessment of cardiac organoid beating kinetics in response to panel a) astemizole, panel b) pergoglide, and panel c) terodiline.
# It should be noted that most drugs that are recalled for causing cardiac toxicity are not actually recalled due to cardiac cell death, but rather for causing changes in cardiac function, such as beating kinetics. While 2D cardiomyocyte cultures can maintain beating activity, consistency and reproducibility can be difficult to maintain. […] These facts make it more difficult to compare beating kinetics between these cell model types.
# [8] = test system: liver organoids, 2D primary human hepatocytes, 2D HepG2; test: ATP activity, 3D liver organoids versus 2D hepatocyte and 2D HepG2 cultures; assay type: cell-based; conditions: ATP normalized to no drug baseline
# Description: as §4, §5
# [9] = test system: liver, cardiac, lung, testis, and brain organoids
# Description: A microfluidic platform having a miniaturized footprint and fluid volume was prepared and it was assessed whether the same complex drug studies are possible on this platform.
# As with the full-scale platform described in Example 4, five tissue constructs were initiated containing liver, cardiac, lung, testis, and brain organoids and maintained for 7 days prior to the start of the drug study. At this point, the liver modules were removed from half of the platforms. Capecitabine (20 uM) was administered to all platforms after which viability was assessed through live/dead staining or cardiac beating behavior after 7 days of exposure (day 14 of total study).
# [10] = test system: liver, cardiac, lung, testis, and brain organoids; remark: listed apart in the source
# Description: Aim of Experiment: To assess dependence of multi organoid toxicity on liver organoid metabolic function.
# At this point, the liver modules were removed from half of the platforms. Capecitabine (20 μM) was administered to all platforms after which viability was assessed through live/dead staining or cardiac beating behavior after 7 days of exposure (day 14 of total study).
# cardiac organoids [11] = test system: cardiac organoids; remark: listed apart in the source
# Excerpt: (§1) In the human body, organs interact with one another in complex ways. […] The modular nature of the fluidic system was employed to construct such a platform. Real-time visual monitoring of cardiac organoids was achieved using an onboard LED and camera system that was customized to integrate with the cardiac construct microreactor housing (FIG. 6, panel a) ^32. This system allowed real time video capture (FIG. 6, panel b). Using custom written MatLab code with a series of MatLab functions, moving pixels in each frame were determined against time, generating a binary representation of beat propagation (FIG. 6, panel c) and plots visualizing beating rates.
# (§2) Effects of epinephrine and propranolol were first tested independently with a cardiac-only system or the tandem system, before being tested jointly in both systems.
# (§3) Next, the interplay between both drugs in the cardiac-only and tandem systems was assessed. […] Beating plots for each condition are depicted in FIG. 6, panels f-i.
# [12] = test system: cardiac organoids downstream of liver construct
# Excerpt: as §1, §2, §3
# [13] = test system: vascular endothelium (human umbilical vein endothelial cells); conditions: 100 μM histamine, constant for 10 minutes; normal media about 0.54 kΩ
# Description: The goal of our work was to develop a highly functional microfluidic perfusion-driven six-tissue body-on-a-chip system, containing representations of liver, heart, vasculature, lung, testes, and colon (FIG. 1, panels A-B). Importantly, these individual tissue types would be constructed in modular microfluidic hardware devices, or microreactors (FIG. 1, panel B), formed by conventional polydimethyl-siloxane (PDMS) soft lithography and molding, ^11,30,31 allowing simple “plug and play” capabilities for platform initialization. […] Because of the specific individual requirements of each type of tissue model, a toolbox of biofabrication techniques was employed to create each tissue model (FIG. 1, panels C-E). Briefly, using hanging drop methodology, spherical liver organoids were formed with primary human hepatocytes, stellate cells, and Kupffer cells, spherical cardiac organoids and testes organoids were formed using human induced pluripotent stem (iPS) cells. These spherical organoids were then bioprinted (FIG. 7) into the microreactors using a liver ECM-derived bio-ink, a fibrin and gelatin bio-ink, and a hyaluronic acid (HA) and gelatin bio-ink, employing crosslinking of the hydrogel bio-inks to immobilize the organoids as larger hydrogel-organoid constructs within the perfusion system. […]
# vascular endothelium = conditions: confluent monolayers, 100 μM histamine from 20 min, at 45 min; 50-90 RFUs before histamine
# Description: New vascular modules were prepared with either fully confluent endothelial layers or non-confluent layers. For this experiment, liver organoids were immobilized in liver-specific bioink, as described, in the bottom chamber of the modules (FIG. 3, panel f). These were imaged in parallel to the mass transport experiment by macro-confocal microscopy, showing the endothelium on the semi-porous membrane (membrane not visible) and the 3D liver organoid below (FIG. 3, panel g). Importantly, for the mass transport experiment, the bioink also contained a soluble fluorescent dye consisting of soluble 15 kDa gelatin conjugated with Alexa Fluor 594 maleimide tags in media. Upon addition of the liver organoids, bioink, and dye in the bottom chamber of the device, devices were sealed, and experiments were initiated. Modules were maintained under 25 μL/min flow with normal media coming from a media reservoir, during which aliquots from the outlet ports were collected every 5 minutes. […] Aliquots were analyzed following the experiment for fluorescent intensity.
smiles,measurement,setting,value
"O=[N+]([O-])[O-].[Tl+] [thallium, thallium nitrate]",ATP activity,cardiac organoids [1],decreases in ATP activity
"CC(=O)Nc1ccc(O)cc1 [APAP, acetaminophen]",albumin and urea output into media,liver organoids [2],negatively affected
same,LDH and alpha-GST in media,liver organoids [2]; APAP treatment,elevated levels
Cc1c(C)c2c(c(C)c1O)CCC(C)(COc1ccc(CC3SC(=O)NC3=O)cc1)O2 (centres unmarked) [Troglitazone],Site of Primary Toxicity,[3],Liver
same,"cell death, LIVE/DEAD",liver organoids [4],increases in cell death
CS(=O)(=O)c1ccc(C2=C(c3ccccc3)C(=O)OC2)cc1 [Rofecoxib],Site of Primary Toxicity,[3],Heart
same,"sensitivity by ATP activity, 2D cardiomyocyte cultures compared to 3D organoids and 2D C2C12 cultures",[5]; only at low to medium drug concentrations,increased sensitivity
CCCN1C[C@H](CSC)C[C@@H]2c3cccc4[nH]cc(c34)C[C@H]21 [Pergoglide],Site of Primary Toxicity,[3],Heart
same,"sensitivity by ATP activity, 3D cardiac organoids compared to the 2D systems",[6],significantly more sensitive
same,beating kinetics of 3D cardiac organoids,cardiac organoids [7],detrimental changes in beating kinetics
O=C(O)COc1ccc(C(=O)c2cccs2)c(Cl)c1Cl [Tienilic Acid],Site of Primary Toxicity,[3],Liver
same,"sensitivity by ATP activity, 3D organoids versus both 2D systems",[8],did not experience significantly different responses
Nc1c(CC(=O)O)cccc1C(=O)c1ccc(Br)cc1 [Bromfenac],Site of Primary Toxicity,[3],Liver
same,"sensitivity by ATP activity, 3D organoids and 2D hepatocyte cultures in comparison to 2D HepG2 cultures",[8],slightly more resistant
CCCCCOC(=O)Nc1nc(=O)n([C@@H]2O[C@H](C)[C@@H](O)[C@H]2O)cc1F [capecitabine],metabolism of the prodrug,[9],this metabolism does not occur
same,metabolism of the prodrug,"[9]; human, 7 days, 20 uM",metabolized into the toxic drug 5-FU
same,metabolism of the prodrug,[10],this metabolism does not occur
same,metabolism of the prodrug,"[10]; human, 7 days, 20 μM",metabolized into the toxic drug 5-FU
COc1ccc(CCN2CCC(Nc3nc4ccccc4n3Cc3ccc(F)cc3)CC2)cc1 [Astemizole],Site of Primary Toxicity,[3],Heart
same,"sensitivity by ATP activity, 3D cardiac organoids compared to the 2D systems",[6],significantly more sensitive
same,beating kinetics of 3D cardiac organoids,cardiac organoids [7],detrimental changes in beating kinetics
Cc1onc(-c2ccccc2)c1-c1ccc(S(N)(=O)=O)cc1 [Valdecoxib],Site of Primary Toxicity,[3],Heart
same,"sensitivity by ATP activity, 2D cardiomyocyte cultures compared to 3D organoids and 2D C2C12 cultures",[6],increased sensitivity
CC(CC(c1ccccc1)c1ccccc1)NC(C)(C)C (centres unmarked) [Terodiline],Site of Primary Toxicity,[3],Heart
same,beating kinetics of 3D cardiac organoids,cardiac organoids [7],detrimental changes in beating kinetics
same,"sensitivity by ATP activity, 3D cardiac organoids compared to the 2D systems",[5]; only at the highest concentration of 100 μM,slightly more sensitive
"[Cl][Pb][Cl] [lead, lead chloride]",ATP activity,cardiac organoids [1],decreases in ATP activity
"CC(=O)N[C@@H](CS)C(=O)O [NAC, N-acetyl-L-cysteine]","viability, LIVE/DEAD staining on day 14",liver organoids [2]; 10 mM APAP with 20 mM N-acetyl-L-cysteine,rescued
same,albumin and urea output into media,liver organoids [2],decreases this reduction in secretion
CNC[C@H](O)c1ccc(O)c(O)c1 [epinephrine],epinephrine concentration at which beat rate increase reaches a plateau,cardiac organoids [7],≥ 5 µM
same,dose dependent increase in beat rate,cardiac organoids [7]; increasing epinephrine concentration,1 to 2 fold
same,increase in beating rate,"cardiac organoids [11]; epinephrine only, 0.5 μM",~ 40%
same,increase in cardiac BPM after epinephrine,"cardiac organoids [11]; experimental controls, no propranolol prior to epinephrine",1.5 fold
same,increase in BPM after epinephrine,"[12]; Group 2, liver component present, 0.1 μM propranolol then 0.5 μM epinephrine",1.25 fold
same,response relative to control epinephrine-only response,"[12]; Group 2, liver organoids, propranolol then epinephrine",approximately 50%
same,restoration of the epinephrine-induced increase in beat rate,[12]; Group 2 conditions with 2D hepatocyte culture (1-2 million cells) in place of 3D liver organoids,failed to achieve any restoration
same,increase in beating rate,"[12]; epinephrine only, 0.5 μM, liver component present, p<0.05",~30%
CC(C)NCC(O)COc1cccc2ccccc12 (centres unmarked) [propranolol],beating rate after administration of 5 μM epinephrine,cardiac organoids [7]; initial incubation with propranolol 0 to 20 μM,dose dependent decrease in beating rate
same,effect of propranolol on response to 0.5 μM epinephrine,"cardiac organoids [11]; Group 1, no liver organoids, 0.1 μM propranolol first",successfully blocked the beta-adrenergic effects
same,decrease in beating rate,"cardiac organoids [11]; propranolol only, 0.1 μM, p<0.05",~ 10%
same,change in beating rate,"[12]; propranolol only, 0.1 μM, liver construct present",no decrease in beating rate
NCCc1c[nH]cn1 [histamine],resistance across endothelium layers (TEER),[13],approximately 0.4 kΩ
same,fluorescent intensity of outlet aliquots (dye transfer),vascular endothelium,~200 RFUs
COCC(=O)O[C@]1(CCN(C)CCCc2nc3ccccc3[nH]2)CCc2cc(F)ccc2[C@@H]1C(C)C [Mibefradil],Site of Primary Toxicity,[3],Liver
same,"sensitivity by ATP activity, 3D organoids and 2D hepatocyte cultures in comparison to 2D HepG2 cultures",[8],more sensitive
same,"cell death, LIVE/DEAD",liver organoids [4],increases in cell death
O=C(O)CNCP(=O)(O)O [glyphosate],ATP activity,cardiac organoids [1],decreases in ATP activity
